US20220193042A1, “NITAZOXANIDE AND THIAZOLIDES FOR USE IN THE TREATMENT OF DISEASES ASSOCIATED WITH OXIDATIVE STRESS” (GENFIT, priority 2019, published 2022)

Tests used:
[1] = tested on: Nrf2 target genes; assay: Enrichment of Nrf2 target genes in hepatic transcriptome (RNAseq), CDAA/c NASH model; format: in vivo, C57Bl/6J mice; conditions: NTZ+CDAA/c vs CDAA/c; Nrf2 target genes are 1.3% of whole identified transcriptome
Protocol: In the current study, the preventive effects of NTZ 100 mg/kg/day were assessed in a murine model. 6 week-old male C57Bl/6J mice were fed a control (CSAA) diet (n=8), CDAA+1% cholesterol diet (n=12), or CDAA+1% cholesterol diet supplemented with NTZ 100 mg/kg/day (n=8) for 12 weeks. The food was purchased from Ssniff® company (Soest, Germany). Nitazoxanide (Interchim, Ref #RQ550) was incorporated by Ssniff® into CDAA+1% chol diet in powder form to the required dose.
The body weight and the food intake were monitored twice per week. On the last day of treatment, mice were sacrificed after a 6 h fasting period. The liver was rapidly excised for transcriptomic and histological studies.
Upon measurement of RNA samples concentration by nanodrop, the quality was assessed using bioanalyser. […]
Reads were cleaned using Trimmomatic v.0.36 with the following parameters: SLIDINGWINDOW:5:20 LEADING:30 TRAILING:30 MINLEN:60.Then reads were aligned on the genome reference (Mus musculus GRCm38.90) with rnacocktail using hisat2 v.2.1.0 as aligner with default parameters. […]
To identify differentially expressed genes (DE genes), we used R (version 3.4.3) and the DESEa2 library (v. 1.18.1). […] Briefly, the count matrix produced by FeatureCounts was analyzed by the DESeqDataSetFromMatrixO function followed by the DEseq( ) function from the DESeq2 library. […]

[2] = tested on: Nrf2-ARE signaling; assay: ARE Reporter - HepG2 cell line luciferase assay; format: cell-based, human; conditions: 1 μM TZ, 18 h exposure, vs vehicle
Protocol: ARE Reporter—Hep G2 cells(BPS Bioscience, Inc., San Diego cat #60513) were cultured following manufacturer's instructions. After thawing (BPS thaw medium 1, cat #60187), cells were cultured in growth-medium (BPS growth medium 1K, cat #79533) and subsequently plated at a density of 40 000 cells par well in a 96-well microplate in 45 μl of assay medium (BPS thaw medium). TZ (Interchim; cat #RP253) & DL-Sulforaphane (Sigma; cat #S4441) were dissolved in DMSO and diluted into assay medium. 5 μl of 10× dilution were added on cells to reach a final concentration of 1 μM and 3 μM for TZ and DL-Sulforaphane (DL-Sulfo) respectively. After 18 h exposure, luciferase activity was determined. 50 μl of One-Step Luciferase assay system (BPS cat #60690) were added per well and after −15 min of rocking at room temperature, luminescence was measured using a luminometer.

[3] = tested on: Hep G2 cells; assay: Intracellular GSH detection (ThiolTracker Violet) in menadione-stressed Hep G2 cells; format: cell-based, human; conditions: 1 μM TZ preincubated 1 hour, then 100 μM menadione for 2 hours
Protocol: Tizoxanide (Interchim; cat #RP253) was dissolved in DMF (Sigma; cat #227056). Menadione (Sigma; cat #M2518) and N-Acetylcysteine were dissolved (Sigma; cat #A9165) in water. Hep G2 cells (ECACC) were plated at a density of 20 000 cells par well into a 96-well microplate in 100 μl of DMEM (Gibco; cat #41965-039) supplemented with 1% P/S (Gibco; cat #15140-122), 1% glutamine(Gibco; cat #25030-024).The complete medium contained 10% SVF (Gibco; cat #10270-106). The next day, culture medium was removed and replaced by 100 μL of DMEM (Gibco; cat #31053-028) without Red Phenol and SVF but supplemented with 1% P/S (Gibco; cat #15140-122), 1% glutamine(Gibco; cat #25030-024). The serum deprived HepG2 were preincubated for 1 hour with TZ or N-Acetylcysteine (NAC) then exposed to Menadione (MND) for 2 hours. Compounds were dissolved in their respective vehicles a mentioned above and diluted in the deprived culture medium. […] The cellular level of reduced glutathione was subsequently monitored using the ThiolTracker Violet dye (Invitrogen, cat #T10096). Briefly, cells were washed two times with DPBS (Invitrogen, Cat #14287-080) then incubated for 30 min at 37° with 100 μl of prewarmed ThiolTracker Violet dye solution prepared in DPBS according the supplier 's instructions and fluorescence was measured (Ex:404 nm, Em: 526 nm)

Structure (SMILES) | proportion of Nrf2-regulated genes among all differentially expressed genes [1] | ARE-mediated luciferase activity (ARE-mediated transcription) [2] | prevention of MND-induced reduction of cellular GSH [3]
CC(=O)Oc1ccccc1C(=O)Nc1ncc([N+](=O)[O-])s1 [NTZ, [2-[(5-nitro-1,3-thiazol-2-yl)carbamoyl]phenyl]ethanoate] | more than 8% | – | –
O=C(Nc1ncc([N+](=O)[O-])s1)c1ccccc1O [TZ, Tizoxanide] | – | significant increase | totally prevented
